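The compound was tested at five concentrations on cells cultured in 96-well plates, with a 48-hour exposure period. GI50 marks 50% less growth. TGI: concentration producing complete growth inhibition.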 Bounds are passed on as bounds.

Some test systems named below: EKVX NSCLC; SK-MEL-5 melanoma; NCI-H460 lung; SF-268 CNS; OVCAR-8 ovarian; HOP-92 NSCLC; U251 CNS; COLO 205 colon; M14 melanoma; NCI-H23 lung.
Common to all, as to test: growth of human tumour cells (NCI), 48 h

Turning to `OCCCCC#Cc1ccccc1C#Cc1cccc(O)c1`, the GI50 with EKVX NSCLC is 23.5 µM; with SK-MEL-5 melanoma, 17.8 µM; with NCI-H460 lung, 18.5 µM; in the assay on SF-268 CNS, 18.5 µM; in the assay with OVCAR-8 ovarian, 18.2 µM; in the assay on HOP-92 NSCLC, 19.8 µM. The GI50 is 15 µM in the assay on U251 CNS, 19.7 µM in the assay on COLO 205 colon, 17.4 µM with M14 melanoma and 18 µM in the assay with NCI-H23 lung. Moreover, the TGI with EKVX NSCLC worked out at 57 µM; in the assay on SK-MEL-5 melanoma, 32.7 µM; with NCI-H460 lung it was 40.7 µM; with SF-268 CNS, 42.6 µM; in the assay with OVCAR-8 ovarian, 36.9 µM; in the assay with HOP-92 NSCLC, 40.7 µM. In addition, the TGI in the assay on U251 CNS stood at 31.3 µM; in the assay with COLO 205 colon, 35.6 µM; in the assay with M14 melanoma it was 35.1 µM; in the assay with NCI-H23 lung, 36.1 µM.
As for `O/N=C\c1c(O)ccc2ccccc12`, the TGI in the assay on EKVX NSCLC, with SK-MEL-5 melanoma, with NCI-H460 lung, in the assay on SF-268 CNS, with OVCAR-8 ovarian and with HOP-92 NSCLC was over 100 µM in each case. The TGI in the assay with U251 CNS, in the assay on COLO 205 colon, with M14 melanoma and with NCI-H23 lung was over 100 µM in each case.
As to `Cc1c[n+](Cc2ccc3ccccc3c2)cn1Cc1ccc2ccccc2c1`, the GI50 in the assay on EKVX NSCLC is 2.15 µM; with SK-MEL-5 melanoma, 0.688 µM; in the assay with NCI-H460 lung it was 1.72 µM; with SF-268 CNS, 1.36 µM; in the assay with OVCAR-8 ovarian, 1.89 µM; in the assay on HOP-92 NSCLC, 0.448 µM. In addition, the GI50 with U251 CNS was 1.61 µM; in the assay with COLO 205 colon, 1.12 µM; with M14 melanoma it was 1.58 µM; in the assay on NCI-H23 lung, 1.49 µM. Further, the TGI in the assay with EKVX NSCLC stood at 9.71 µM; in the assay on SK-MEL-5 melanoma, 1.94 µM; with NCI-H460 lung it was 3.65 µM; with SF-268 CNS, 2.88 µM; with OVCAR-8 ovarian, 4.01 µM; in the assay with HOP-92 NSCLC, 2.02 µM. The TGI is 3.07 µM with U251 CNS, 2.62 µM in the assay on COLO 205 colon, 3.66 µM in the assay on M14 melanoma and 3.97 µM in the assay with NCI-H23 lung.
As for `CC1=C(C(=O)Nc2c(C)cccc2C)C(c2ccccc2Cl)C(C(=O)Nc2c(C)cccc2C)=C(C)N1`, the TGI in the assay on EKVX NSCLC, in the assay with SK-MEL-5 melanoma, in the assay on NCI-H460 lung, in the assay on SF-268 CNS, in the assay with OVCAR-8 ovarian and in the assay with HOP-92 NSCLC was over 100 µM each time. The TGI in the assay with U251 CNS, in the assay with COLO 205 colon, in the assay with M14 melanoma and in the assay on NCI-H23 lung was over 100 µM each time.
On to `O=C(O)c1ccccc1-c1ccccc1C(=O)Nc1ccc2c(c1)Cc1cc(F)ccc1-2`, for which the TGI is 77.3 µM in the assay with EKVX NSCLC; 47.2 µM in the assay with SK-MEL-5 melanoma; 68.2 µM in the assay on NCI-H460 lung; over 100 µM with SF-268 CNS; over 100 µM in the assay on OVCAR-8 ovarian; over 100 µM with HOP-92 NSCLC. Also, the TGI in the assay on U251 CNS turned out to be 50.2 µM; in the assay on COLO 205 colon it was 32.7 µM; in the assay with M14 melanoma, 40 µM; in the assay with NCI-H23 lung, 36.5 µM.
As for `O=S(O)CCCCSSCc1ccccc1CSSCCCCS(=O)O`, the TGI in the assay on EKVX NSCLC was over 100 µM; in the assay on SK-MEL-5 melanoma it was 23.2 µM; in the assay on NCI-H460 lung, over 100 µM; in the assay on SF-268 CNS it was 39.3 µM; in the assay on OVCAR-8 ovarian, 89.5 µM; with HOP-92 NSCLC, 74.7 µM. Further, the TGI in the assay on U251 CNS was over 100 µM; with COLO 205 colon, 31.2 µM; in the assay on M14 melanoma it was 26.7 µM; in the assay with NCI-H23 lung, 61.8 µM.
Consider `CC(C)(C)N1CC2(CCCCC2)C1=O`, for which the TGI in the assay on EKVX NSCLC, with SK-MEL-5 melanoma, in the assay on NCI-H460 lung, with SF-268 CNS, in the assay on OVCAR-8 ovarian and with HOP-92 NSCLC was over 100 µM in each case. Further, the TGI with U251 CNS, with COLO 205 colon, with M14 melanoma and in the assay with NCI-H23 lung was over 100 µM each time.
In the case of `Cc1cc(C)n(CCNCCn2nc(C)cc2C)n1`, the TGI in the assay with EKVX NSCLC, in the assay with SK-MEL-5 melanoma, in the assay with NCI-H460 lung, in the assay with SF-268 CNS, in the assay on OVCAR-8 ovarian and in the assay with HOP-92 NSCLC was over 100 µM in each case. In addition, the TGI with U251 CNS, with COLO 205 colon, in the assay on M14 melanoma and in the assay on NCI-H23 lung was over 100 µM in each case.
`Fc1ccc(Nc2cc(-n3nnc4ccccc43)nc3ccccc23)cc1`: the GI50 in the assay with EKVX NSCLC is 31.8 µM; in the assay with SK-MEL-5 melanoma, 32.2 µM; in the assay on NCI-H460 lung it was 26.2 µM; with SF-268 CNS it was over 40.1 µM; in the assay on OVCAR-8 ovarian, 22.2 µM; in the assay with HOP-92 NSCLC, 14.4 µM. Further, the GI50 in the assay on U251 CNS is 27.6 µM; with COLO 205 colon it was 5.74 µM; in the assay on M14 melanoma it was over 81.7 µM; in the assay with NCI-H23 lung, 49.2 µM. In addition, the TGI in the assay on EKVX NSCLC was over 82.6 µM; in the assay on SK-MEL-5 melanoma, over 100 µM; with NCI-H460 lung it was over 100 µM; in the assay with SF-268 CNS, over 66.3 µM; with OVCAR-8 ovarian, over 79 µM; with HOP-92 NSCLC it was 34 µM. In addition, the TGI in the assay with U251 CNS is over 76.1 µM; with COLO 205 colon, over 100 µM; with M14 melanoma, over 100 µM; with NCI-H23 lung it was over 100 µM.
On to `O=C1/C(=C\c2cccn2Cc2ccccc2)c2ccccc2N1c1c(Cl)cccc1Cl`, for which the GI50 with EKVX NSCLC was 1.42 µM; in the assay with SK-MEL-5 melanoma, 3.02 µM; with NCI-H460 lung, 4.43 µM; in the assay on SF-268 CNS it was over 100 µM; in the assay on OVCAR-8 ovarian it was over 100 µM; in the assay with HOP-92 NSCLC it was 1.52 µM. The GI50 in the assay on U251 CNS was over 100 µM; in the assay on COLO 205 colon, 1.36 µM; in the assay on M14 melanoma, over 100 µM; in the assay on NCI-H23 lung it was over 63 µM. Further, the TGI was over 28.1 µM in the assay with EKVX NSCLC; over 100 µM with SK-MEL-5 melanoma; over 100 µM with NCI-H460 lung; over 100 µM in the assay on SF-268 CNS; over 100 µM with OVCAR-8 ovarian; 28.8 µM in the assay on HOP-92 NSCLC. In addition, the TGI with U251 CNS was over 100 µM; in the assay with COLO 205 colon, 6.26 µM; with M14 melanoma, over 100 µM; with NCI-H23 lung it was over 100 µM.

For the origin of these results see PubChem BioAssay (NCI).
